Measured values: patent publication US9211270B2, “Method for improving the efficacy of curcuminoids and their analogs” (ASAC Compañía de Biotecnología e Investigación, S.A., priority 2007, dated 2015)

Experiments:
[1] = test system: A431 cells (human epidermal carcinoma); test: Inhibition of tumor growth in mice, intraperitoneal Curcumin with visible light; type: in vivo, athymic nude mice (NMRI); details: day 12, Curcumin 50 mg/kg per day i.p. + visible light 5500 lx 20 minutes
Description: 5*10^6 A431 cells (human epidermal carcinoma) were injected subcutaneously into the left and right flanks of athymic nude mice (NMRI) (5-6 weeks old, 20-24 g). The mice were fed in pathogen-free conditions. The animals were fed ad libitum with sterilized food. The animals were sterilized with ketamine/xylazine.
The irradiation device was 10 Phillips TLK 40W/03 lamps (60 cm length*4 cm diameter), at a distance of 45 cm. The emission range of the lamps was between 400-550 nm with a maximum at 420 nm.
Tumor size was measured initially and after 10-12 days; afterwards tumor volumes and weights were determined twice a week. At the end of the experiment (29 days), the animals were anesthetized and sacrificed.

[2] = test system: psoriasis; details: 12 week studies; cited from earlier work

## COc1cc(/C=C/C(=O)CC(=O)/C=C/c2ccc(O)c(OC)c2)ccc1O [Curcumin, curcumin (diferuloylmethane)]
[1]
  reduction of average tumor volume in comparison to control mice: 70%

## Efalizumab
[2]
  patients who reached a score of PASI-75: 22-35%
